Earlier results in patent US8748394B2, “Apo A-I mimetic peptides and methods of treatment” (Abbott Cardiovascular Systems Inc., priority 2007, dated 2014).
Entries after “also recorded” stand apart in the source; their conditions may differ. Square brackets hold non-standard residues; d marks the D form. Ends that are not written are not given here.

System: reverse cholesterol transport
Conditions: for function in reverse cholesterol transport in vitro: when a phospholipid complex is presented; for effectiveness in reverse cholesterol transport: without a lipid complex (non-complex form)

Substance	need of phospholipid complex for effective reverse cholesterol transport	function in reverse cholesterol transport in vitro	effectiveness in reverse cholesterol transport
Ac-PALEDLRQGLLPVLESFKVFLSALEEYTKKLNTQ-NH2 [33-mer peptide mimetic, 33-mer peptide, helices 9/10]	requires phospholipid complex formation		
DWFKAFYDKVAEKFKEAF [D-4F] ([dD][dW][dF][dK][dA][dF][dY][dD][dK][dV][dA][dE][dK][dF][dK][dE][dA][dF]) [18 amino acid Apo A-I mimetic peptide 4F, D enantiomer]		function more effectively	effective in reverse cholesterol transport without a lipid complex; also recorded: demonstrated an ability to function in a non-complex form
DWFKAFYDKVAEKFKEAF [L-4F] (not fully specified) [18 amino acid Apo A-I mimetic peptide 4F, L enantiomer]		function more effectively	demonstrated an ability to function in a non-complex form
